Laboratory results from patent US20250263437A1, “POLYPEPTIDE FOR REPAIRING SKIN WOUND OR MUCOSAL INJURY, AND APPLICATION THEREOF” (Sichuan Gooddoctor Panxi Pharmaceutical Co., Ltd., priority 2021, published 2025).
Entries after “also recorded” stand apart in the source; their conditions may differ. Where no end group is shown, it is not given here.

Key:
[1] = tested on: ethanol-induced gastric ulcer model in mice; assay: Anti-ulcer effect on ethanol-induced gastric ulcer model in mice; assay type: in vivo; details: single administration; ulcer inhibition rate of test compound / ulcer inhibition rate of Compound 1
Procedure: Experimental animals: Six-week old C57BL/6JGPt male mice, weighing about 20 g/mouse, were selected, with 10 mice in each group, from GemPharmatech (Chengdu) Co., Ltd., animal license number: SCXK (Chuan) 2020-034. After the experimental animals were divided into groups, they were dosed according to Table 5 one day before the experiment. Among the groups, the model group was given 200 μl of pure water, and the other dose groups were given 200 μl of drug solution. After that, all the animals were fasted for 24 h with free access to water. The next day, 1 h after administration, the mice in each group were given 9 μl/g of absolute ethanol by oral gavage for modeling. After 1 h, the animals were sacrificed by cervical dislocation, the gastric cardia was ligated, the pylorus was occluded, and the whole stomach was removed. 1 mL of 1% formaldehyde solution was injected into the gastric lumen via the glandular stomach, the cardia was ligated, and the stomach was taken out and immediately immersed in 1% formaldehyde solution. After soaking for 30 min, the stomach tissue was taken out and cut open along the greater curvature. The content of the stomach was rinsed off with normal saline, the injury of the gastric mucosa in the mice were observed and measured after being laid flat, and the ulcer index and ulcer inhibition rate were calculated; panoramic photos of the stomach were taken; and finally, the gastric tissue sample was immersed in formalin and fixed. Calculation method for ulcer index: If the length of cord-like injury was greater than 1 mm, the length thereof was measured, with 1 point per millimeter; if the width thereof was greater than 1 mm, the score thereof was doubled according to the number of millimeters of the width; and if the length was less than 1 mm, a score of 0.5 was given, and the scores were added up to obtain the ulcer index of the animal. Method of data statistics: the ulcer index was expressed as mean±standard deviation; the ulcer inhibition rate was calculated by using the median value and mean value of the ulcer index in each dosage group and simulation group; and the data were statistically analyzed by means of Excel, and the difference data of the gastric ulcer index were statistically analyzed by means of independent sample T test.

[2] = tested on: chronic atrophic gastritis model in mice; assay: Therapeutic effect on chronic atrophic gastritis model in mice (MNNG combined with ranitidine); assay type: in vivo; details: 5 mg/kg daily by gavage, 2 weeks
Procedure: Method: Chronic atrophic gastritis was induced by MNNG (N-methyl-N-nitro-N-nitrosoguanidine) combined with ranitidine. The mice were free to access to an aqueous solution containing MNNG ([…]), and at the same time, the mice were given ranitidine (8 mg/ml) aqueous solution at a dose of 150 mg/kg by gavage at a fixed time per day for 20 consecutive weeks. After 20 weeks of modeling, on the basis of drinking ordinary distilled water, the mice were given Compound 1 (5 mg/kg) daily by gavage.

[3] = tested on: HMEC-1 cells; assay: Proliferation of HMEC-1 cells (CCK-8); assay type: cell-based, Human; details: 0.05, 0.2 and 0.8 ug/mL; 48 h; 0% serum
Procedure: Human microvascular endothelial cells (HMEC-1 cells) were cultured in 10% serum culture medium at 37° C. and 5% CO2, the medium was replaced every 1-2 d, and the cell concentration was controlled to be 4×10^6 cells/mL for passage. Cells were collected, prepared to […] with complete culture medium, inoculated into a 96-well cell culture plate, with 100 μL per well, i.e., 5000 cells/well, and cultured at 37° C. and 5% CO2 until the cells adhered to the wall. The polypeptide compound of the present invention was prepared to test concentrations (0.05 ug/mL, 0.2 ug/mL, and 0.8 ug/mL) with 0% serum culture medium as experimental groups, a positive drug (300 ng/ml) was prepared in the same way and added as a positive control, and an equal amount of 0% serum drug-free culture medium was added to the control group. They were added to 5 duplicate wells, and the resultants were incubated at 37° C. and 5% CO2 for 48 h. Detection of the proliferation of cells using CCK-8: the old culture medium was removed, and a serum-free medium containing 10% CCK-8 was added to each well. After incubation in an incubator for 2 h, the absorbance at 450 nm was measured by a microplate reader.

[4] = tested on: RSC96 cells; assay: Proliferation of RSC96 cells (CCK-8); assay type: cell-based; details: 0.2, 0.4 and 0.8 ug/ml; 48 h; 0% serum
Procedure: Glial cells (RSC96 cells) were adjusted to a concentration of 1.0×10^5 to 5.0×10^5/mL for passaging and cultured at 37° C. and 5% CO2 for 24-36 h for biological activity detection. The cells were digested by trypsin, collected, prepared to a concentration of 5×10^4/mL with a serum-free medium, inoculated into a 96-well cell culture plate, with 100 μL per well, i.e., 5000 cells/well, and cultured overnight at 37° C. and 5% CO2. The polypeptide compound of the present invention was prepared to test concentrations (0.2 ug/ml, 0.4 ug/ml, and 0.8 ug/ml) with 0% serum culture medium as experimental groups, and an equal amount of 0% serum drug-free culture medium was added to the control group. They were added to 4 duplicate wells, and the resultants were incubated at 37° C. and 5% CO2 for 48 h. Detection of the proliferation of cells using CCK-8: the old culture medium was removed, and a serum-free medium containing 10% CCK-8 was added to each well. After incubation in an incubator for 2 h, the absorbance at 450 nm was measured by a microplate reader.

Question: Which “Anti-ulcer activity (mean relative ulcer inhibition rate)” value [1] does the source give for SMQASLEAEAKGKAE [Compound 1] here?
Answer: 1.00

Question: What about the “repair / therapeutic effect on chronic atrophic gastritis” value [2] of the same sequence?
Answer: could promote the repair of chronic atrophic gastritis in mice; also recorded: therapeutic effect

Question: What about the “height of the mucosa in the gastric antrum” value ([2]; compared with the model group) of the same sequence?
Answer: substantially recovered to the normal state

Question: What about the “number of parietal cells” value ([2]; compared with the model group) of the same sequence?
Answer: increased significantly

Question: What about the “structure of the gastric gland” value ([2]; compared with the model group) of the same sequence?
Answer: recovered to normal

Question: And the “effect on proliferation of HMEC-1 cells” value [3]?
Answer: significant proliferation promoting effects; also recorded: proliferation-promoting effect

Question: And the “effect on proliferation of RSC96 cells” value [4]?
Answer: significant proliferation promoting effects; also recorded: proliferation-promoting effect

Question: What does the source list for AAVLDKLE [Compound 68]?
Answer: Anti-ulcer activity (mean relative ulcer inhibition rate) [1]: 0.85; effect on proliferation of RSC96 cells [4]: significant proliferation promoting effects

Question: For VDAAVLEKLE [Compound 67], which “Anti-ulcer activity (mean relative ulcer inhibition rate)” value [1] is on record?
Answer: 0.24

Question: And the “effect on proliferation of RSC96 cells” value [4]?
Answer: proliferation-promoting effect
